{"source": "paper PMC8459971", "about": "“Evaluation of the hepatotoxicity of the novel GPR40 (FFAR1) agonist CPL207280 in the rat and monkey” (PLoS ONE, 2021)", "key": {"HepG2 cells": {"tested_on": "HepG2 cells", "experiment": "Respiration in hepatocytes (Seahorse XF Mito stress test)", "type": "cell-based, human", "conditions": "for oxygen consumption rate, mito stress tracing: Fig2 A; for ECAR (Extracellular Acidification Rate) / OCR (Basal Oxygen Consumption rate): replicates"}, "MRP3": {"target": "MRP3 (Homo sapiens, UniProt O15438)", "sequence (O15438 whole entry, the tested form may be a part)": "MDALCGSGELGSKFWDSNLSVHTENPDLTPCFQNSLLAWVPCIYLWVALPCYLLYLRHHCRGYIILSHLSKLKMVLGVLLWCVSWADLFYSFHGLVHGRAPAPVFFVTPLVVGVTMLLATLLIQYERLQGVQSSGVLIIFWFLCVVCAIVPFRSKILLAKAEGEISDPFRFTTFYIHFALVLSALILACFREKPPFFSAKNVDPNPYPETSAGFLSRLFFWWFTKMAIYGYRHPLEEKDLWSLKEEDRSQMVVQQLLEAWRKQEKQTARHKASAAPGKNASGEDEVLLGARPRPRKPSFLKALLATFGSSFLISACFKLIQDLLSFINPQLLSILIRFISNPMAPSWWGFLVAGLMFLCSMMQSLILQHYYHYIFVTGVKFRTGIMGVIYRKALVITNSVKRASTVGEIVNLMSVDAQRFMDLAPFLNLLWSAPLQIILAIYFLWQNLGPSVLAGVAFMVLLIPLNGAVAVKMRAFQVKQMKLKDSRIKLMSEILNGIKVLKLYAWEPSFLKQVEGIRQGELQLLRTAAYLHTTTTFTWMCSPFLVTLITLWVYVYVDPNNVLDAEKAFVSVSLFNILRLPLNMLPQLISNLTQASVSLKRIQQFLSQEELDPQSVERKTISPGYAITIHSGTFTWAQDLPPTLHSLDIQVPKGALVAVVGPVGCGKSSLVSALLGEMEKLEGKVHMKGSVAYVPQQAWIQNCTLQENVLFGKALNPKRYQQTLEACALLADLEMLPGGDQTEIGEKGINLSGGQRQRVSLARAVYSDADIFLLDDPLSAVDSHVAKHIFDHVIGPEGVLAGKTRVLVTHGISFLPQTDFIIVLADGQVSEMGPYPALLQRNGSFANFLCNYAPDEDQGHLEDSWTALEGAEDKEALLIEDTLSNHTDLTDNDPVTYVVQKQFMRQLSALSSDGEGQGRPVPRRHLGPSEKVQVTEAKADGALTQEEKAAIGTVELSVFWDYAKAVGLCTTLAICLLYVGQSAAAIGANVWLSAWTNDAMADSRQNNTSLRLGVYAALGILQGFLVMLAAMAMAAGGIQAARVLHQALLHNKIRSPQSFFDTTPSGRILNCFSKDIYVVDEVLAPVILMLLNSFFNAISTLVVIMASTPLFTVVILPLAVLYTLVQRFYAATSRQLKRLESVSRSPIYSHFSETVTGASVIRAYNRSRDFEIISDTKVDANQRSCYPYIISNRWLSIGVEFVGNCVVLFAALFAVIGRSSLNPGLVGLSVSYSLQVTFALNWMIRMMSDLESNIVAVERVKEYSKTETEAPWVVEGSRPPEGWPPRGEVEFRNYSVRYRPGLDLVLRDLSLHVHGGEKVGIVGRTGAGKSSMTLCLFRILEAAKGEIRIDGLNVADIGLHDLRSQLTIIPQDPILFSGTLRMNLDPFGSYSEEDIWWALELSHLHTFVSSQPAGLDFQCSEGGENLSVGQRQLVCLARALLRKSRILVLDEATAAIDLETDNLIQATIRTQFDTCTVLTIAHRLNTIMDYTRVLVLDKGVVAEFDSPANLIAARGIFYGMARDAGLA", "experiment": "Vesicular transport inhibition assay, MRP3;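 further: membrane vesicles with radiolabelled probe substrate and 2 mM glutathione, 4 mM ATP versus AMP background control, vesicle-trapped substrate quantified by liquid scintillation counting after filtration; ATP 4 mM vs AMP background separates transporter uptake from diffusion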", "conditions": "MRP3; conc 0.10 µM", "protocol": "In the vesicular transport inhibition assay (for BSEP, MRP) compounds were incubated with membrane vesicle preparations and the probe substrate. Incubations were carried out in the presence of 4 mM ATP or AMP to distinguish between transporter-mediated uptake and passive diffusion into the vesicles. For MRP2 and MRP3, reactions were carried out in the presence of 2 mM glutathione. Compounds were added to the reaction mixture in 0.75 μL of solvent (1% of the final incubation volume). […] Reactions were initiated by the addition of 25 μL of 12 mM MgATP (or 12 mM AMP in assay buffer as a background control) and preincubated separately. Reactions were quenched by the addition of 200 μL of ice-cold washing buffer and immediate filtration via glass fiber filters mounted on a 96-well plate (filter plate). The filters were washed (5 × 200 μL of ice-cold washing buffer), dried, and the amount of substrate inside the filtered vesicles was determined by liquid scintillation counting."}}, "note": "“And” between values parts separate entries of the source, which are not always exact repeats. Equal values may be shown once.", "data": [{"molecule": "CC#C[C@@H](CC(=O)O)c1ccc(OCC(C)=C(C)C)cc1", "note": "[CPL207280]", "values": [{"measurement": "oxygen consumption rate, mito stress tracing", "setting": "HepG2 cells; HepG2, 0.3 uM, 34.6705 min", "value": "80.249 and 97.2155 and 86.8514"}, {"measurement": "oxygen consumption rate, mito stress tracing", "setting": "HepG2 cells; HepG2, 0.3 uM, 41.3548 min", "value": "35.437 and 46.6744 and 43.9128"}, {"measurement": "oxygen consumption rate, mito stress tracing", "setting": "HepG2 cells; HepG2, 0.3 uM, 47.9665 min", "value": "35.8498 and 44.0725 and 43.5554"}, {"measurement": "oxygen consumption rate, mito stress tracing", "setting": "HepG2 cells; HepG2, 0.3 uM, 54.5812 min", "value": "34.6812 and 46.6208 and 43.7024"}, {"measurement": "oxygen consumption rate, mito stress tracing", "setting": "HepG2 cells; HepG2, 0.3 uM, 61.2916 min", "value": "130.123 and 163.716 and 142.011"}, {"measurement": "oxygen consumption rate, mito stress tracing", "setting": "HepG2 cells; HepG2, 0.3 uM, 67.9128 min", "value": "106.485 and 133.91 and 115.698"}, {"measurement": "oxygen consumption rate, mito stress tracing", "setting": "HepG2 cells; HepG2, 0.3 uM, 74.5347 min", "value": 96.5173}, {"measurement": "oxygen consumption rate, mito stress tracing", "setting": "HepG2 cells; HepG2, 1 uM, 34.6705 min", "value": "100.011 and 78.8082 and 81.9508"}, {"measurement": "oxygen consumption rate, mito stress tracing", "setting": "HepG2 cells; HepG2, 1 uM, 41.3548 min", "value": "47.2411 and 41.158 and 37.0741"}, {"measurement": "oxygen consumption rate, mito stress tracing", "setting": "HepG2 cells; HepG2, 1 uM, 47.9665 min", "value": "46.2402 and 40.9403 and 37.3629"}, {"measurement": "oxygen consumption rate, mito stress tracing", "setting": "HepG2 cells; HepG2, 1 uM, 54.5812 min", "value": "47.0103 and 40.8472 and 36.7203"}, {"measurement": "oxygen consumption rate, mito stress tracing", "setting": "HepG2 cells; HepG2, 1 uM, 61.2916 min", "value": "170.96 and 125.782 and 138.858"}, {"measurement": "oxygen consumption rate, mito stress tracing", "setting": "HepG2 cells; HepG2, 1 uM, 67.9128 min", "value": "139.39 and 102.287 and 110.384"}, {"measurement": "oxygen consumption rate, mito stress tracing", "setting": "HepG2 cells; HepG2, 1 uM, 74.5347 min", "value": "123.934 and 92.2309 and 99.0802"}, {"measurement": "oxygen consumption rate, mito stress tracing", "setting": "HepG2 cells; HepG2, 10 uM, 34.6705 min", "value": "110.191 and 84.6025 and 86.6099"}, {"measurement": "oxygen consumption rate, mito stress tracing", "setting": "HepG2 cells; HepG2, 10 uM, 41.3548 min", "value": "53.0343 and 43.3081 and 40.0605"}, {"measurement": "oxygen consumption rate, mito stress tracing", "setting": "HepG2 cells; HepG2, 10 uM, 47.9665 min", "value": "52.304 and 44.0598 and 40.3019"}, {"measurement": "oxygen consumption rate, mito stress tracing", "setting": "HepG2 cells; HepG2, 10 uM, 54.5812 min", "value": "53.3375 and 43.9407 and 40.3833"}, {"measurement": "oxygen consumption rate, mito stress tracing", "setting": "HepG2 cells; HepG2, 10 uM, 61.2916 min", "value": "205.106 and 144.168 and 145.662"}, {"measurement": "oxygen consumption rate, mito stress tracing", "setting": "HepG2 cells; HepG2, 10 uM, 67.9128 min", "value": "156.881 and 114.329 and 108.157"}, {"measurement": "oxygen consumption rate, mito stress tracing", "setting": "HepG2 cells; HepG2, 10 uM, 74.5347 min", "value": "137.02 and 102.413 and 95.1094"}, {"measurement": "oxygen consumption rate, mito stress tracing", "setting": "HepG2 cells; HepG2, 30 uM, 34.6705 min", "value": "92.7755 and 86.7994 and 98.474"}, {"measurement": "oxygen consumption rate, mito stress tracing", "setting": "HepG2 cells; HepG2, 30 uM, 41.3548 min", "value": "47.1023 and 44.4378 and 48.0839"}, {"measurement": "oxygen consumption rate, mito stress tracing", "setting": "HepG2 cells; HepG2, 30 uM, 47.9665 min", "value": "46.5085 and 44.5297 and 49.242"}, {"measurement": "oxygen consumption rate, mito stress tracing", "setting": "HepG2 cells; HepG2, 30 uM, 54.5812 min", "value": "47.3133 and 45.4103 and 49.1801"}, {"measurement": "oxygen consumption rate, mito stress tracing", "setting": "HepG2 cells; HepG2, 30 uM, 61.2916 min", "value": "166.246 and 150.833 and 168.619"}, {"measurement": "oxygen consumption rate, mito stress tracing", "setting": "HepG2 cells; HepG2, 30 uM, 67.9128 min", "value": "122.701 and 115.579 and 125.99"}, {"measurement": "oxygen consumption rate, mito stress tracing", "setting": "HepG2 cells; HepG2, 30 uM, 74.5347 min", "value": "107.636 and 100.89 and 113.574"}, {"measurement": "oxygen consumption rate, mito stress tracing", "setting": "HepG2 cells; HepG2, 100 uM, 34.6705 min", "value": "67.4412 and 69.6068 and 55.4444"}, {"measurement": "oxygen consumption rate, mito stress tracing", "setting": "HepG2 cells; HepG2, 100 uM, 41.3548 min", "value": "37.8597 and 39.5148 and 33.1927"}, {"measurement": "oxygen consumption rate, mito stress tracing", "setting": "HepG2 cells; HepG2, 100 uM, 47.9665 min", "value": "37.9692 and 40.1535 and 34.8525"}, {"measurement": "oxygen consumption rate, mito stress tracing", "setting": "HepG2 cells; HepG2, 100 uM, 54.5812 min", "value": "38.5804 and 40.5605 and 35.0114"}, {"measurement": "oxygen consumption rate, mito stress tracing", "setting": "HepG2 cells; HepG2, 100 uM, 61.2916 min", "value": "98.1667 and 106.839 and 80.4832"}, {"measurement": "oxygen consumption rate, mito stress tracing", "setting": "HepG2 cells; HepG2, 100 uM, 67.9128 min", "value": "74.25 and 83.2846 and 59.4526"}, {"measurement": "ECAR (Extracellular Acidification Rate)", "setting": "HepG2 cells; HepG2, 0.3 uM", "value": "0.9978 and 0.9743 and 0.8743"}, {"measurement": "OCR (Basal Oxygen Consumption rate)", "setting": "HepG2 cells; HepG2, 0.3 uM", "value": "0.9555 and 0.9023 and 1.068"}, {"measurement": "ECAR (Extracellular Acidification Rate)", "setting": "HepG2 cells; HepG2, 1 uM", "value": "0.9613 and 0.9697 and 0.955"}, {"measurement": "OCR (Basal Oxygen Consumption rate)", "setting": "HepG2 cells; HepG2, 1 uM", "value": "0.9695 and 0.8683 and 1.043"}, {"measurement": "ECAR (Extracellular Acidification Rate)", "setting": "HepG2 cells; HepG2, 10 uM", "value": "1.014 and 1.053 and 0.9962"}, {"measurement": "OCR (Basal Oxygen Consumption rate)", "setting": "HepG2 cells; HepG2, 10 uM", "value": "1.0176 and 0.8931 and 1.143"}, {"measurement": "ECAR (Extracellular Acidification Rate)", "setting": "HepG2 cells; HepG2, 30 uM", "value": "0.995 and 1.079 and 1.004"}, {"measurement": "OCR (Basal Oxygen Consumption rate)", "setting": "HepG2 cells; HepG2, 30 uM", "value": "1.014 and 0.9586 and 1.1505"}, {"measurement": "ECAR (Extracellular Acidification Rate)", "setting": "HepG2 cells; HepG2, 100 uM", "value": "1.11 and 1.113 and 1.179"}, {"measurement": "OCR (Basal Oxygen Consumption rate)", "setting": "HepG2 cells; HepG2, 100 uM", "value": "1.005 and 0.9369 and 1.04"}, {"measurement": "EC50 of acidification of media (ECAR)", "setting": "HepG2 cells; HepG2, Seahorse XF", "value": "absent"}, {"measurement": "effect on ATP synthesis", "setting": "HepG2 cells; HepG2, Seahorse XF", "value": "did not alter ATP synthesis"}, {"measurement": "effect on oxygen consumption rate / basal respiration", "setting": "HepG2 cells; HepG2, Seahorse XF", "value": "reduced basal and maximal respiration at the highest concentration of 100 μM"}, {"measurement": "effect on respiration", "setting": "HepG2 cells; hepatocytes, Seahorse XF, 100 μM", "value": "slight respiration inhibition"}, {"measurement": "Accumulation (counts per minute; CPM) with AMP", "setting": "MRP3", "value": "240 CPM and 237 CPM"}]}]}
